How the values were obtained:
[1] = in vivo
[2] = Population pharmacokinetic modeling and covariate analysis; assay type: in vivo, human
[3] = Base model (n=26), Bootstrap median (95% CI)
[4] = Base model (n=26), Estimate (CV %)
[5] = Covariate model (LBM, n=26), Bootstrap median (95% CI)
[6] = Covariate model (LBM, n=26), Estimate (CV %)

C#Cc1cccc(Nc2ncnc3cc(OCCOC)c(OCCO)cc23)c1 [OSI-420]
OSI-420 detection in plasma [1]: ƛ OSI-420 was undetectable in one patient treated on Arm B
measurable OSI-420 in plasma [1]: no measureable OSI-420
θCLM, metabolite clearance [2, 3]: 23.60 (4.76, 47.91) L/h
θV2, metabolite volume of distribution [2, 3]: 7.67 (0.09, 21.91) L
θCLM, metabolite clearance [2, 4]: 21.5 (8.9) L/h
θV2, metabolite volume of distribution [2, 4]: 7.18 (62.8) L
θCLM, metabolite clearance [2, 5]: 27.80 (4.04, 55.60) L/h
θV2, metabolite volume of distribution [2, 5]: 8.99 (0.04, 26.11) L
θCLM, metabolite clearance [2, 6]: 32.6 (10.4) L/h
θV2, metabolite volume of distribution [2, 6]: 11.6 (12.1) L
